Patent US20100093645A1, “SMAC Peptidomimetics and the Uses Thereof” (priority 2004, published 2010)
Each block holds one molecule with its values, some of them ahead of it. Square brackets hold non-standard residues; d marks the D form. Peptide text beside a SMILES is read from it. Abu = CC[C@H](N)C(=O)O

Columns and labels:
[1] = target: T1, human XIAP-BIR3 protein (residues 241-356) (Homo sapiens, UniProt P98170); experiment: Competitive fluorescence polarization (FP-based) binding assay with SM5F probe; settings: SM5 vs S9
Target sequence in this assay (P98170 241-356): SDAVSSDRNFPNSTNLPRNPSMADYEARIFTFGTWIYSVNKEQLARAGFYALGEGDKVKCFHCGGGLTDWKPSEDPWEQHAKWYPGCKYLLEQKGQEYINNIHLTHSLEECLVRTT

[2] = target: T1, human XIAP-BIR3 protein (residues 241-356); experiment: biochemical
XIAP = XIAP (Homo sapiens, UniProt P98170); settings: background statement; cited from earlier work
Chain of XIAP (P98170 whole entry): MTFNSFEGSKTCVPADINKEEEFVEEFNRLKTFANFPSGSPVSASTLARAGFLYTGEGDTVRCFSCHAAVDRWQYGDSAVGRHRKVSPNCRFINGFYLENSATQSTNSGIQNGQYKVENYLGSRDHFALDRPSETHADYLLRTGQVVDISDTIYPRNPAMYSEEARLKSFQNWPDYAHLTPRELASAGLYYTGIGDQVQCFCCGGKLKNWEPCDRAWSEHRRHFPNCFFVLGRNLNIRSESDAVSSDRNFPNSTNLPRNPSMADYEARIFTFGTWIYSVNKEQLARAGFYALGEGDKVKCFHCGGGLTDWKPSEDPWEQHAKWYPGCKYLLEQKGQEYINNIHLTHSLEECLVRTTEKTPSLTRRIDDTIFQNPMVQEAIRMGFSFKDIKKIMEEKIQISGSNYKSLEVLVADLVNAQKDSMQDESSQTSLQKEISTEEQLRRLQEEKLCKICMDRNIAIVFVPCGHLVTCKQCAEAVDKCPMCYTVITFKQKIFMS

ratio of the IC50 values for unlabeled SM5 and S9 [1]: 6.7 fold | IC50 [2]: 220 ± 10 nM | Ki [2]: 75 ± 5 nM
Molecule: CC[C@H](N)C(=O)N[C@@H](CCCNC(=N)N)C(=O)N1CCC[C@H]1C(=O)N[C@@H](Cc1ccccc1)C(=O)N[C@@H](CCCCN)C(=O)O [SM5, AbuRPFK, reference compound] (H-[Abu]RPFK-OH; N-terminus and C-terminus assumed)

B1: mature Smac protein: second mitochondria-derived activator of caspases, mature polypeptide (protein, UniProt Q9NR28 22-239, looked up)
Diablo IAP-binding …: LCVPVVANFKKRCFSELIRPWHKTVTIGFGVTLCAVPIAQKSEPHSLSSEALMRRAVSLVTDSTSTFLSQTTYALIEAITEYTKAVYTLTSLYRQYTSLLGKMNSEEEDEVWQVIIGARAEMTSKHQEYLKLETTWMTAVGLSEMAAEAAYQTGADQASITARNHIQLVKLQVEEVHQLSRKAETKLAEAQIEELRQKTQEEGEERAESEQEAYLRED
Kd (XIAP): 420 nM
